Reference: ChEMBL document CHEMBL3044539, “Fungichromin: a substance from Streptomyces padanus with inhibitory effects on Rhizoctonia solani” (2003)
Values after ≈ are worked out from the molar mass of the structure shown. Active and inactive are the calls of the source. No cut-off for these calls is given here.

What was measured:
Rhizoctonia solani [1] = assay: Antifungal activity against Rhizoctonia solani AG-4 RST-04 assessed as mycelial growth inhibition after 2 days; assay type: functional; conditions: AG-4 RST-04, 48 h
Rhizoctonia solani [2] = assay: Antifungal activity against Rhizoctonia solani AG-4 RST-04 assessed as mycelial growth inhibition at 80 to 120 ug/ml after 2 days; assay type: functional, organism-based

In the case of `CCCCC[C@@H](O)[C@H]1C(=O)O[C@H](C)[C@@H](O)/C=C/C=C/C=C/C=C/C=C(\C)[C@@H](O)[C@H](O)[C@H](O)C[C@H](O)C[C@H](O)C[C@H](O)C[C@H](O)C[C@@H]1O` [PENTAMYCIN], the MIC (Rhizoctonia solani [1]) is reported as 72 µg/mL (≈ 107 µM) and the “growth inhibition (GI)” value (Rhizoctonia solani [2]) is reported as “Active”.
